Data as given in patent US20230248665A1, “COMPOSITION COMPRISING DIMETHYLCHALCONE DERIVATIVE FOR PREVENTION OR TREATMENT OF METABOLIC DISEASE” (SEOUL NATIONAL UNIVERSITY R & DB FOUNDATION, priority 2020, published 2023).

Experiments:
Format in all cases: cell-based
AMPK = AMPK activity, western blotting of phosphorylated AMPK in C2C12 myotubes; conditions: 10 µM, 24 hours, FIG. 2
Text: AMP-activated protein kinase (AMPK) is a member of serine/threonine kinases, and is an enzyme known as an energy sensor which senses the intracellular energy state. Moreover, the activation of AMPK is known to show the effect of increasing glucose transport and promoting fatty acid oxidation in skeletal muscle, and to […] the synthesis of cholesterol and triglycerides, decrease lipogenesis, and increase fatty acid oxidation, and ketogenesis, and the like in the liver. Further, the activation of AMPK is known to reduce adipogenesis in adipose tissue and increase insulin secretion in pancreatic beta cells, thereby being able to be applied to the treatment of various metabolic diseases. Therefore, western blotting was performed in order to confirm the effect of the DMC derivatives of Example 1 on AMPK activity. More specifically, the C2C12 myoblasts were primarily cultured in DMEM supplemented with 10% fetal bovine serum, and then cultured in DMEM supplemented with 2% horse serum for 5 days to differentiate into myotubes. Then, the differentiated myotubes were treated with 10 µM DMC derivative and cultured for 24 hours, and then cells were collected, and disrupted using an ultrasonic disperser to obtain proteins. Next, western blotting was performed using a pAMPK antibody (Cell Signaling Technology) and an AMPK antibody (Cell Signaling Technology) to measure the amount of phosphorylated AMPK. 1 mM AICAR was used as a positive control, and 20 µg of protein was used for each sample in western blotting.

[1] = system: rat aortic smooth muscle cells; assay: PDGF-induced migration of vascular smooth muscle cells; conditions: 1 µM with 10 ng/mL PDGF; FIG. 4
Method: Proliferation and migration of vascular smooth muscle cells are known to be essential steps in the progression of vascular diseases such as restenosis and arteriosclerosis. Therefore, in order to confirm the effect of the DMC derivatives of Example 1 on the migration of rat aortic smooth muscle cells, smooth muscle cells were treated with 10 ng/mL platelet-derived growth factor (PDGF) and 1 µM DMC derivative and cultured. Then, the degree of cell migration was measured.

[2] = system: vascular endothelial cells (HUVECs) and THP-1 (human monocyte) immune cells; assay: Binding of THP-1 immune cells to TNFα-treated vascular endothelial cells (HUVECs); conditions: 10 µM with 10 ng/mL TNFα, 24 hours, then THP-1 for 1 hour; FIG. 5
Method: In the early stages of progression of vascular diseases such as arteriosclerosis, adhesion materials are expressed in vascular endothelial cells due to various environmental factors, thereby increasing the binding of immune cells. Therefore, in order to check whether the DMC derivatives of Example 1 affect the binding between vascular endothelial cells and immune cells, vascular endothelial cells (HUVECs) were treated with 10 ng/mL TNFα and 10 µM DMC derivative and cultured for 24 hours. Then, THP-1 (human monocyte) immune cells labeled with a fluorescent protein were added to the culture solution, and the cells were additionally cultured for 1 hour. After the culture was completed, unbound immune cells were removed using a phosphate buffer solution, and then the degree of binding of immune cells to vascular endothelial cells was determined by measuring the intensity of fluorescence.

[3] = system: human kidney proximal tubule epithelial cell (HK-2) cell line; assay: Antioxidant effect, intracellular reactive oxygen species (DCF-DA) in HK-2 kidney cells after H2O2; conditions: 1 µM for 18 hours, then 500 µM H2O2 for 6 hours, FIG. 6
Method: First, the antioxidant effect was checked using kidney cells. More specifically, a human kidney proximal tubule epithelial cell (HK-2) cell line was treated with 1 µM DMC derivative and cultured for 18 hours. Then, 500 µM H2O2 was added to the culture medium and the culture medium was incubated for 6 hours. Thereafter, the amount of intracellular reactive oxygen species (iROS) was measured using dichlorohydro-fluorescein diacetate (DCF-DA).

Structure (SMILES) | activity of AMPK (phosphorylated AMPK) (AMPK) | migration of vascular smooth muscle cells [1] | binding of immune cells to vascular endothelial cells (fluorescence) [2] | amount of intracellular reactive oxygen species (ROS) [3]
COCOc1c(C)c(O)c(C(=O)/C=C/c2cc(OC)ccc2OC)c(OC)c1C [Chemical Formula 15, 1-(2′-hydroxy-4′-(methoxymethoxy)-6′-methoxy-3′,5′-dimethylphenyl)-3-(2,5-dimethoxyphenyl)-2-propen-1-one] | increased the activity of AMPK similarly to or more effectively than the positive controls | similarly or more effectively suppressed cell migration by PDGF than AICAR and Rosi, which were used as positive controls, and DMC | similarly or more effectively suppressed the binding of immune cells than Rosi | effectively reduced ROS
COc1c(C)c(OC)c(C(=O)/C=C/c2ccc(N(C)C)cc2)c(OC)c1C [Chemical Formula 23, 1-(3′,5′-dimethyl-2′,4′,6′-trimethoxyphenyl)-3-(4-(N,N-dimethylamino)phenyl)-2-propen-1-one] | increased the activity of AMPK similarly to or more effectively than the positive controls | similarly or more effectively suppressed cell migration by PDGF than AICAR and Rosi, which were used as positive controls, and DMC | similarly or more effectively suppressed the binding of immune cells than Rosi | effectively reduced ROS
COCOc1c(C)c(O)c(C(=O)/C=C/c2ccc(F)cc2)c(OC)c1C [Chemical Formula 24, 1-(2′-hydroxy-4′-(methoxymethoxy)-6′-methoxy-3′,5′-dimethylphenyl)-3-(4-fluorophenyl)-2-propen-1-one] | increased the activity of AMPK similarly to or more effectively than the positive controls | similarly or more effectively suppressed cell migration by PDGF than AICAR and Rosi, which were used as positive controls, and DMC | similarly or more effectively suppressed the binding of immune cells than Rosi | effectively reduced ROS
COCOc1c(C)c(O)c(C(=O)/C=C/c2ccccc2)c(OC)c1C [Chemical Formula 25, 1-(2′-hydroxy-4′-(methoxymethoxy)-6′-methoxy-3′,5′-dimethylphenyl)-3-phenyl-2-propen-1-one] | increased the activity of AMPK similarly to or more effectively than the positive controls | similarly or more effectively suppressed cell migration by PDGF than AICAR and Rosi, which were used as positive controls, and DMC | similarly or more effectively suppressed the binding of immune cells than Rosi | effectively reduced ROS
